In patent US20140081017A1, “Histone Deacetylase Inhibitors for Enhancing Activity of Antifungal Agents” (METHYLGENE INC., priority 2012, published 2014):
≈ marks a conversion by molar mass, not a printed value. Read-outs that look alike come from different tables or passages of the source.

Key:
Candida albicans = experiment: Minimal Inhibitory Concentration (MIC) assay, broth microdilution per CLSI; format: cell-based; settings: Candida albicans, read-out: Minimum Inhibitory Concentrations against Yeast Isolates, Candida albicans;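 note: two read times 24 hr and 48 hr of incubation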
Procedure: (§1) The in vitro activities of the inventive compounds (compound(s) herein) against fungi and/or yeasts were determined with isolates Candida albicans, Candida glabrata and Candida parapsilosis. The comparator compounds included fluconazole, caspofungin and amphotericin B.
(§2) The compounds were supplied as a powder, and were dissolved in dimethylsulfoxide (DMSO) the day of assay. Stock solutions were prepared at 10 mg/mL and diluted to a starting stock concentration of 2.56 mg/mL. Amphotericin B was dissolved in DMSO to a stock concentration of 2.56 mg/mL. Fluconazole was dissolved in deionized water to a stock concentration of 2.56 mg/mL. Caspofungin was received as a stock solution of 3.2 mg/mL in DMSO and was diluted to a starting stock concentration of 2.56 mg/mL.
(§3) The test organisms and reference isolates were streaked for isolation on Sabouraud agar medium (yeasts) or potato dextrose agar (fungi). Colonies were picked by swab from the medium and resuspended in the appropriate broth containing cryoprotectant. The suspensions were aliquoted into cryogenic vials and maintained at −80° C.
(§4) Prior to testing, the yeast isolates were streaked from the frozen vials onto Sabouraud dextrose agar. The plates were incubated overnight at 35° C. The fungal isolate was grown on potato dextrose agar slants and was incubated for 7-10 days at room temperature.
(§5) Both yeast and fungal isolates were tested in RPMI medium buffered with 0.165 M MOPS (3-(N-morpholino)propanesulfonic acid). The pH of the medium was adjusted to 7.0 with 1 N NaOH. The medium was sterile filtered using a 0.2 um PES (polyethersulfone) filter and stored at 4° C. until used.
(§6) The MIC assay method followed the procedure described by the Clinical and Laboratory Standards Institute (CLSI; 1, 2, 3) and employed automated liquid handlers to conduct serial dilutions and liquid transfers. Automated liquid handlers included the Multidrop 384 (Labsystems, Helsinki, Finland), Biomek 2000 and Biomek FX (Beckman Coulter, Fullerton Calif.). The wells in columns 2-12 in standard 96-well microdilution plates (Costar 3795) were filled with 150 ul of 100% DMSO. These would become the ‘mother plates’ from which ‘daughter’ or test plates would be prepared. The compounds (300 uL at 40× the desired top concentration in the test plates) were dispensed into the appropriate well in Column 1 of the mother plates. The Biomek 2000 was used to make serial 1:1 dilutions through Column 11 in the “mother plate”. The wells of Column 12 contained no compounds and were the organism growth control wells.
(§7) The daughter plates were loaded with 185 uL per well of RPMI described above using the Multidrop 384. The daughter plates were prepared using the Biomek FX which transferred 5 μL of the compound solution from each well of a mother plate to the corresponding well of the daughter plate in a single step.
(§8) Standardized inoculum of each organism was prepared per CLSI methods. For yeast isolates, colonies were picked from the streak plate and a suspension was prepared in 0.85% saline. For the fungal isolate, 1 mL of 0.85% saline was dispensed onto the potato dextrose agar slant that had been inoculated 7-10 days previously. Using a swab, a suspension of the fungus was made. After a short time to allow the heavy particles to settle out, a small quantity of the supernatant was dispensed into 0.85% saline and the suspension adjusted to equal a 0.5 McFarland turbidity standard. Both yeast and fungal isolates were diluted 1:100 in RPMI and then transferred to compartments of sterile reservoirs divided by length (Beckman Coulter). The Biomek 2000 was used to inoculate the plates. Daughter plates were placed on the Biomek 2000 work surface reversed so that inoculation took place from low to high compound concentration. The Biomek 2000 delivered 10 μL of standardized inoculum into each well. Thus, the wells of the daughter plates ultimately contained 185 uL of RPMI, 5 uL of the compound solution, and 10 uL of inoculum. […]

Candida glabrata = experiment: as above; format: cell-based; settings: Nakaseomyces glabratus, read-out: Minimum Inhibitory Concentrations against Yeast Isolates, Candida glabrata;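 note: two read times 24 hr and 48 hr of incubation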
Procedure: as §1, §2, §3, §4, §5, §6, §7, §8

Candida parapsilosis = experiment: as above; format: cell-based; settings: Lodderomyces parapsilosis, read-out: Minimum Inhibitory Concentrations against Yeast Isolates, Candida parapsilosis;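 note: two read times 24 hr and 48 hr of incubation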
Procedure: as §1, §2, §3, §4, §5, §6, §7, §8

C. glabrata = experiment: Checkerboard FIC assay in combination with fluconazole (MIC alone and in combination, FICI); format: cell-based, Candida glabrata; settings: for FICI of combination resulting in fluconazole MIC of: 2 ug/mL / FICI of combination resulting in fluconazole MIC of: 4 ug/mL / FICI of combination resulting in fluconazole MIC of: 8 ug/mL: FICI calculated using a fluconazole MIC of 16 μg/mL; for FICI of combination resulting in fluconazole MIC of: 2 ug/mL (value in parenthesis) / FICI of combination resulting in fluconazole MIC of: 4 ug/mL (value in parenthesis) / FICI of combination resulting in fluconazole MIC of: 8 ug/mL (value in parenthesis): FICI using a fluconazole MIC of 128 μg/mL; for MIC: Nakaseomyces glabratus; for Multiple of compound MIC to synergize fluconazole MIC to 2 ug/mL / Multiple of compound MIC to synergize fluconazole MIC to 4 ug/mL / Multiple of compound MIC to synergize fluconazole MIC to 8 ug/mL: concentration in combination as multiple of the compound's MIC alone; for Multiple of compound MIC to synergize fluconazole MIC to 2 ug/mL: fluconazole MIC 2 ug/mL; for Multiple of compound MIC to synergize fluconazole MIC to 4 ug/mL: fluconazole MIC 4 ug/mL; for Multiple of compound MIC to synergize fluconazole MIC to 8 ug/mL: fluconazole MIC 8 ug/mL; for Concentration of Methylgene compound to synergize fluconazole MIC to 2 ug/mL / Concentration of Methylgene compound to synergize fluconazole MIC to 4 ug/mL / Concentration of Methylgene compound to synergize fluconazole MIC to 8 ug/mL: in combination with fluconazole; for Concentration of Methylgene compound to synergize fluconazole MIC to 2 ug/mL: fluconazole MIC lowered to 2 ug/mL; for Concentration of Methylgene compound to synergize fluconazole MIC to 4 ug/mL: fluconazole MIC lowered to 4 ug/mL; for Concentration of Methylgene compound to synergize fluconazole MIC to 8 ug/mL: fluconazole MIC lowered to 8 ug/mL
Procedure: The ability of the compounds to synergize with azoles against C. glabrata was evaluated by the checkerboard assay, a common laboratory method used to evaluate synergy, antagonism, and indifference using fractional inhibitory concentrations (FICs) and FIC indices (FICI).
The test compounds were supplied as a powder and dissolved in dimethylsulfoxide (DMSO) on the day of assay. Stock solutions were prepared at 640 ug/mL. Fluconazole was dissolved in deionized water to a stock concentration of 320 ug/mL. All test articles were in solution under these conditions.
as §3, §4, §5
FIC values were determined using a broth microdilution method (CLSI; 1, 3). To prepare the test plates, automated liquid handlers (Multidrop 384, Labsystems, Helsinki, Finland; Biomek 2000 and Biomek FX, Beckman Coulter, Fullerton Calif.) were used to conduct serial dilutions and liquid transfers.
The wells of standard 96-well microdilution plates (Costar 3795) were filled with 150 uL of DMSO in columns 2-12. Three hundred microliters of each test compound was added to each well in Column 1 of the plates. The Biomek 2000 was used to make eleven 2-fold serial dilutions in each of these “test compound mother” plates. The wells of the “fluconazole mother plates” were filled with 150 uL of sterile water in rows B-H. Row A of these plates was filled with 300 uL of the fluconazole stock solution. Serial 2-fold dilutions were then prepared from top to bottom by hand, using a multichannel pipette in rows B-G. The “daughter plates” were loaded with 180 uL of RPMI using the Multidrop 384. The Biomek FX was used to transfer 5 uL of compound solution from each well of a fluconazole mother plate to the corresponding well in all of the daughter plates in a single step. Then the Biomek FX was used to transfer 5 uL of compound solution from each well of a test compound mother plate to the corresponding well of the corresponding test compound daughter plate (already containing fluconazole at the appropriate concentrations) in a single step. Row H and Column 12 each contained serial dilutions of the test agent and fluconazole alone, respectively, for determination of the MIC.
Standardized inoculum of each organism was prepared per CLSI methods (CLSI; 1, 3). For yeast isolates, colonies were picked from the primary plate and a suspension was prepared in 0.85% saline to equal a 0.5 McFarland turbidity standard. For the fungal isolate, 1 mL of 0.85% saline was dispensed onto a potato dextrose agar slant onto which the isolate had been inoculated 7-10 days previously. Using a swab, a suspension of the fungus was made. After a short time to allow the heavy particles to settle out, a small quantity of the supernatant was dispensed into 0.85% saline and the suspension was adjusted to equal a 0.5 McFarland turbidity standard. Both yeast and fungal isolates were diluted 1:100 in RPMI and then transferred to compartments of sterile reservoirs divided by length (Beckman Coulter). The Biomek 2000 was used to inoculate the plates. […]

[1] = 24 hr reading (first value of cell 24 hr/48 hr)
[2] = 48 hr reading (second value of cell 24 hr/48 hr)
[3] = MIC of the example compound alone against C. glabrata in the checkerboard assay, approximately 48 hr, read-out: Methylgene MIC
[4] = test compound alone, C. glabrata, approx. 48 hr at 35° C., read-out: Compound MIC

Row | MIC (Candida albicans; [1]) [µg/mL] | MIC (Candida albicans; [2]) [µg/mL] | MIC (Candida glabrata; [1]) [µg/mL] | MIC (Candida glabrata; [2]) [µg/mL] | MIC (Candida parapsilosis; [1]) [µg/mL] | MIC (Candida parapsilosis; [2]) [µg/mL] | FICI of combination resulting in fluconazole MIC of: 2 ug/mL (C. glabrata; C. glabrata) | FICI of combination resulting in fluconazole MIC of: 4 ug/mL (C. glabrata; C. glabrata) | FICI of combination resulting in fluconazole MIC of: 8 ug/mL (C. glabrata; C. glabrata) | FICI of combination resulting in fluconazole MIC of: 2 ug/mL (value in parenthesis) (C. glabrata; C. glabrata) | FICI of combination resulting in fluconazole MIC of: 4 ug/mL (value in parenthesis) (C. glabrata; C. glabrata) | FICI of combination resulting in fluconazole MIC of: 8 ug/mL (value in parenthesis) (C. glabrata; C. glabrata) | MIC (C. glabrata; [3]) [µg/mL] | MIC (C. glabrata; [4]) [µg/mL] | Multiple of compound MIC to synergize fluconazole MIC to 2 ug/mL (C. glabrata) | Multiple of compound MIC to synergize fluconazole MIC to 4 ug/mL (C. glabrata) | Multiple of compound MIC to synergize fluconazole MIC to 8 ug/mL (C. glabrata) | Concentration of Methylgene compound to synergize fluconazole MIC to 2 ug/mL (C. glabrata; C. glabrata) [µg/mL] | Concentration of Methylgene compound to synergize fluconazole MIC to 4 ug/mL (C. glabrata; C. glabrata) [µg/mL] | Concentration of Methylgene compound to synergize fluconazole MIC to 8 ug/mL (C. glabrata; C. glabrata) [µg/mL] | Compound
1 | 0.5 (≈ 1.57 µM) | 0.5 (≈ 1.57 µM) | 0.5 (≈ 1.57 µM) | 0.5 (≈ 1.57 µM) | 0.25 (≈ 0.783 µM) | 0.5 (≈ 1.57 µM) | 0.563 | 0.625 | 0.490 | 0.516 | 0.531 | 0.303 | 0.5 | 0.5 | (½x) | (½x) | (¼x) | 0.25 | 0.25 | 0.12 | O=C(Cc1ccc(CCCCc2ccc(F)cc2F)cc1)NO [Example 3, 2-(4-(4-(2,4-difluorophenyl)butyl)phenyl)-N-hydroxyacetamide]
2 | 0.25 (≈ 0.841 µM) | 0.25 (≈ 0.841 µM) | 0.25 (≈ 0.841 µM) | 0.25 (≈ 0.841 µM) | 0.12 (≈ 0.403 µM) | 0.25 (≈ 0.841 µM) | 1.063 | 0.605 | 0.490 | 1.016 | 0.511 | 0.303 | 0.25 | 0.25 | (1x) | (½x) | (¼x) | 0.25 | 0.12 | 0.06 | Cc1ccc(CCCCc2ccc(CC(=O)NO)cc2)cc1 [Example 4, N-hydroxy-2-(4-(4-p-tolylbutyl)phenyl)acetamide]
3 | > 8 | > 8 | 0.5 (≈ 1.39 µM) | 8 (≈ 22.3 µM) | > 8 | > 8 | 0.125 | 0.155 | 0.280 | 0.078 | 0.061 | 0.093 | 4 | 4 | ( 1/16x) | ( 1/16x) | ( 1/16x) | 0.25 | 0.12 | 0.12 | O=C(Cc1ccc(CCCCc2ccc(-c3ccccc3)cc2)cc1)NO [Example 5, 2-(4-(4-(biphenyl-4-yl)butyl)phenyl)-N-hydroxyacetamide]
4 | 0.5 (≈ 1.49 µM) | 0.5 (≈ 1.49 µM) | 0.25 (≈ 0.743 µM) | 0.5 (≈ 1.49 µM) | > 4 | > 4 | 0.313 | 0.245 | 0.370 | 0.266 | 0.151 | 0.183 | 1 | 1 | (¼x) | (⅛x) | (⅛x) | 0.25 | 0.12 | 0.12 | Cn1ccc2cc(CCCCc3ccc(CC(=O)NO)cc3)ccc21 [Example 6, N-hydroxy-2-(4-(4-(1-methyl-1H-indol-5-yl)butyl)phenyl) acetamide]
